Series [1] concerns the target Retinol Binding Protein (RBP) (Homo sapiens, UniProt P02753). The series is described as follows: Fluorescence quenching study of MPR binding to retinol binding protein. Here is the method: Apo-RBP at 0.5 μM was incubated with 0, 0.25, 0.5, 1 and 2 μM of MPR in PBS at room temperature for 1 hour, respectively. As controls, the same concentration of Apo-RBP was also incubated with 1 μM of HPR or 1 μM of atROL. All mixtures contained 0.2% Ethanol (v/v). The emission spectra were measured between 290 nm to 550 nm with excitation wavelength at 280 nm and 3 nm bandpass.

A further series deals with ABCA4−/− mice. The series is described as follows: Drug holiday after 28 days of HPR: A2E and precursors in eyecup extracts (HPLC). In kind it is in vivo. The note with it: 28-day drug holiday. Here is the method:
HPR (10 mg/kg in DMSO) was administered to ABCA4−/− mice daily for a period of 28 days. Control ABCA4−/− mice received only DMSO for the same period. […] Importantly, the observed reductions in lipofuscin autofluorescence persist long after cessation of HPR therapy. HPR (10 mg/kg), or DMSO, administration was discontinued following 28 days of treatment and re-evaluated A2E and precursor levels after 2 weeks and after 4 weeks.
We examined eyecup extracts by HPLC and employed detection by absorbance and fluorimetry. Identity of the indicated peaks was confirmed by on-line spectral analysis and by co-elution with authentic standards. […] Further, the A2E and precursor (A2PE-H2 and A2PE) levels after a […] or 28-day drug holiday remained at or near the levels immediately following 28 days of treatment (i.e., ca. 50% reduction relative to control), although after the 28-day drug holiday, the amount of A2E and precursor (A2PE-H2 and A2PE) had increased by a few percentage points relative to the 12-day drug holiday levels. […] It is clear that peak fluorescence tracks with the abundance of A2E, A2PE and A2PE-H2.

The target in a further series is TTR binding to RBP (Homo sapiens, UniProt P02753). As to the kind of experiment: Size exclusion study of transthyretin (TTR) binding to RBP. The note with it: 10 μM Apo-RBP; for binding of ligand-RBP to TTR: gel filtration, 360/330 nm absorbance. Here is the method: Apo-RBP at 10 μM was incubated with […] in PBS at room temperature for 1 hour. 10 μM of TTR was then added to the solution, and the mixture was incubated for another hour at room temperature. […] of the sample mixtures with and without TTR addition were analyzed by BioRad Bio-Sil SEC 125 Gel Filtration Column (300×7.8 mm). In control experiments, atROL-RBP and atROL-RBP-TTR mixture were analyzed in the same manner.
For orientation: In gel filtration, larger molecules generally elute earlier.

A further series concerns the target retinol-RBP-TTR complex (Homo sapiens, UniProt P02753). As to the kind of experiment: High-throughput FRET assay for RBP/TTR interaction. It is filed as binding. The note with it: conditions as for HPR, FIG. 6. An excerpt:
Reduction of serum retinol and RBP are correlated with concomitant reductions in toxic lipofuscin fluorophores. Because compounds that affect RBP-TTR interaction will directly affect fluorophore levels in the eye, a high-throughput screen for small molecules which prevent interaction of RBP with TTR was developed. This screen employs probe-labeled forms of RBP and TTR which participate in a unique fluorescence resonance energy transfer (FRET) event when complexed. Compounds which interfere with RBP-TTR interaction prevent FRET. Sample spectra taken during the course of this type of assay are shown, in FIG. 4. […] The sample is incubated at 37° C. for 30 min and then illuminated with 330 nm light. The emission spectra are shown in the range of 400-600 nm. HPR binds to RBP and prevents interaction with TTR, and here this property of HPR is utilized here to validate the ability of this screen to detect inhibition of RBP-TTR interaction. […] Additionally, the design of this assay permits discrimination between compounds which interact with RBP versus those which interact with TTR. Thus, by using two distinct excitation energies (280 nm and 330 nm, for protein and retinol, respectively) and implementing simultaneous monitoring of the retinol and TTR-probe fluorescence, the “target” of a presumptive small molecule can be easily determined.
Accordingly, HPR was employed at varied concentrations (from 0-4 μM), using the conditions specified in Example 7, to evaluate the high throughput assay.
The mechanism of action underlying this effect can be explained by the disruption of RBP-TTR interactions. In order to explore this possibility and to further validate the RBP-TTR screen, the effects of all-trans retinoic and 13-cis retinoic acid, using the conditions the conditions specified for analysis of HPR, were examined.

For series [2] the following is noted: several investigators; Berni et al. 1993; cited from earlier work.

As for `COc1ccc(NC(=O)\C=C(C)/C=C/C=C(C)\C=C\C2=C(C)CCCC2(C)C)cc1` (stereo in doubt) [MPR, N-(4-methoxyphenyl)retinamide], in series [1] (0.5 μM Apo-RBP, 0-2 μM MPR, room temperature 1 hour, excitation 280 nm), the “quenching of RBP fluorescence” value is listed as “concentration-dependent quenching”. Besides, the “degree of quenching compared with other ligands” value in series [1] (controls at 1 μM) is “smaller than those by atROL and HPR”. In addition, the “concentration at which quenching saturated” value in series [1] (for 0.5 μM of RBP) was determined as 1 µM. Further, in the series on ABCA4−/− mice, the “detection of HPR or HPR metabolites in the eyes” value was “unable to detect”. The “binding of RBP to ligand (360 nm absorbance in RBP elution peak)” value on TTR binding to RBP is “RBP binds to MPR”. Moreover, at TTR binding to RBP (10 μM TTR), the “effect on binding of TTR to RBP” value is reported as “inhibits the binding of TTR to RBP” and the “binding of ligand-RBP to TTR” value is “did not bind to TTR”.
Turning to `CC1=C(/C=C/C(C)=C/C=C/C(C)=C/CO)C(C)(C)CCC1` [atROL, all-trans retinol], the “binding to RBP” value in series [1] (1 μM ligand, 0.5 μM Apo-RBP) is “bind to RBP”. Also, the “binding of ligand-RBP to TTR” value at TTR binding to RBP (10 μM TTR) was “binds to TTR”.
Regarding `CC1=C(/C=C/C(C)=C/C=C/C(C)=C\C(=O)O)C(C)(C)CCC1` [13-cis retinoic acid, 13-cis-retinoic acid], the “inhibition of RBP-TTR interaction” value at retinol-RBP-TTR complex is “inhibitors of RBP-TTR interaction”.
`CC1=C(/C=C/C(C)=C/C=C/C(C)=C/C(=O)O)C(C)(C)CCC1` [all-trans retinoic, all-trans-retinoic acid]: the “reduction in circulating RBP and retinol” value in series [2] was “observed in vivo”. Besides, on retinol-RBP-TTR complex, the “inhibition of RBP-TTR interaction” value is on record as “inhibitors of RBP-TTR interaction”.

Values taken from patent publication US20120202885A1, “METHODS, ASSAYS AND COMPOSITIONS FOR TREATING RETINOL-RELATED DISEASES” (ReVision Therapeutics, Inc., priority 2004, published 2012).
